From PMC4770593, “Efficient microbial production of stylopine using a Pichia pastoris expression system” (Scientific Reports, 2016)

Assays:
Experiment in all cases: LC-MS of product formed by Pichia cells expressing the enzyme
Format in all cases: cell-based
[1] = target: T1, BBE (EcBBE), berberine bridge enzyme (Eschscholzia californica, UniProt P30986); settings: in vivo reaction, BMMY medium pH 6.0, 30 °C, 24 h; racemic substrate; vector control
T1 construct: gene BBE1; codon-optimized synthetic gene in pPIC3.5/pPIC3.5K; expressed in Pichia pastoris GS115; whole cells

[2] = target: T2, CYP719A5 (EcCYP719A5), cheilanthifoline synthase (Eschscholzia californica, UniProt B5UAQ8); settings: in vivo reaction, BMMY medium pH 6.0, 30 °C, 24 h; vector control
T2 construct: codon-optimized synthetic gene in pPIC3.5/pPIC3.5K; expressed in Pichia pastoris GS115; whole cells, endogenous yeast reductase (no plant CPR)

[3] = target: T3, CYP719A2 (EcCYP719A2), stylopine synthase (Eschscholzia californica, UniProt C3SBS2); settings: in vivo reaction, BMMY medium pH 6.0, 30 °C, 24 h; substrate supplied as CYP719A5 reaction product; vector control
T3 construct: codon-optimized synthetic gene in pPIC3.5/pPIC3.5K; expressed in Pichia pastoris GS115; whole cells, endogenous yeast reductase (no plant CPR)
T3 sequence (C3SBS2 entry or part of it): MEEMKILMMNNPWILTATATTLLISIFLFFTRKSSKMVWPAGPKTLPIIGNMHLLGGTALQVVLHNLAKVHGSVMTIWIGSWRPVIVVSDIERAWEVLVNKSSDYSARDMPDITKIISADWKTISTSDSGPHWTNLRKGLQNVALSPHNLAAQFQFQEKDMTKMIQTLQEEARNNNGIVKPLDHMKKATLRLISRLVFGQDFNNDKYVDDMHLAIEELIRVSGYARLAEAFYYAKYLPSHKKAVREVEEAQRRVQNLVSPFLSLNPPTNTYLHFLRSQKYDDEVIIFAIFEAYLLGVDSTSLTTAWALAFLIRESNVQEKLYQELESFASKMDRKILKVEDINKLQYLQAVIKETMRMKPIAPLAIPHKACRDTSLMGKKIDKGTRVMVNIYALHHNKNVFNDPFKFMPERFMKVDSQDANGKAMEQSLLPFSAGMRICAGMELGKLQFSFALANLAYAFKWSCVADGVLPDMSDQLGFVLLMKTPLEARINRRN

T1 sequence (P30986 24-538): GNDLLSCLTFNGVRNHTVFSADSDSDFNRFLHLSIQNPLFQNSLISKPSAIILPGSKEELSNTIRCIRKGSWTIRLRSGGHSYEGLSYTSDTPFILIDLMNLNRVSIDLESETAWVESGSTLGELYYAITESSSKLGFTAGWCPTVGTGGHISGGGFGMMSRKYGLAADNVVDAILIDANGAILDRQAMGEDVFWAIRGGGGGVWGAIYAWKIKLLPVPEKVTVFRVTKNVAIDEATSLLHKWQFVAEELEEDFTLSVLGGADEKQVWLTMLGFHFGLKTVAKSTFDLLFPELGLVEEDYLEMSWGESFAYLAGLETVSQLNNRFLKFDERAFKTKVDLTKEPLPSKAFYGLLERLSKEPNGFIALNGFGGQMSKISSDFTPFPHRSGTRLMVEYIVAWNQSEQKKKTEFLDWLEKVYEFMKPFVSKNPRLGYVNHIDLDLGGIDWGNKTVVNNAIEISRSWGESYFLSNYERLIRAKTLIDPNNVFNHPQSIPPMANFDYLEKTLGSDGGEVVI
T2 sequence (B5UAQ8 whole entry): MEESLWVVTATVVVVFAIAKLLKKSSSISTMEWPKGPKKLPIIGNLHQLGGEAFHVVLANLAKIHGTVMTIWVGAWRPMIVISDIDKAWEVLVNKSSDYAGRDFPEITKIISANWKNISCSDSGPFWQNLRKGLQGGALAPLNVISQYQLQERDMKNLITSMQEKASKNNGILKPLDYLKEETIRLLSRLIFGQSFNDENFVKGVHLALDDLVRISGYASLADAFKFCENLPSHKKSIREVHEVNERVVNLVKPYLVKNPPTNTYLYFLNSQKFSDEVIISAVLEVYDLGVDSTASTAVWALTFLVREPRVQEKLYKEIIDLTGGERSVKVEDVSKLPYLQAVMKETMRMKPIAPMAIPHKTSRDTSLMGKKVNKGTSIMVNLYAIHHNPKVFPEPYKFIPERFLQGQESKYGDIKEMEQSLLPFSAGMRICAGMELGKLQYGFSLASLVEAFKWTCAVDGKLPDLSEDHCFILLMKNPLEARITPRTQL

`COc1ccc(CC2c3cc(O)c(OC)cc3CCN2C)cc1O` (racemic) [(R, S)-reticuline] was tested, and the “LC-MS of product formed by Pichia cells expressing the enzyme” value (“LC-MS of product formed” below) [1] was “reaction products of BBE and CYP719A5 (i.e., scoulerine from reticuline and cheilanthifoline from scoulerine)”.

`COc1cc2c(cc1O)[C@@H]1Cc3ccc(OC)c(O)c3CN1CC2` [(S)-scoulerine] was tested, and the “LC-MS of product formed” value [2] was “The formation of cheilanthifoline by CYP719A5 from scoulerine was confirmed by the production of stylopine”.

With `COc1cc2c(cc1O)[C@@H]1Cc3ccc4c(c3CN1CC2)OCO4` [cheilanthifoline] the “LC-MS of product formed” value [3] was “CYP719A5 reaction product (chielanthifoline) for CYP719A2 reaction”.
